From patent US9744175B2, “Compositions of combinations of non-covalent DNA binding agents and anti-cancer and/or anti-inflammatory agents and their use in disease treatment” (INDUS PHARMACEUTICALS, INC., priority 2012, dated 2017)

Columns and labels:
[1] = tested on: U2OS; assay: Growth inhibition in tumor cell lines (Table 2); format: cell-based, human; conditions: Osteosacroma, WT, lack of EGFR
[2] = tested on: Jurkat; assay: Growth inhibition in tumor cell lines (Table 2); format: cell-based, human; conditions: leukemia, PTEN deficiency
[3] = tested on: U2OS Wild type; assay: siRNA inhibition of MMR, p53 and REV functions, alamar blue growth inhibition; format: cell-based, human; conditions: for Fold improvement in IC50, mlh1: mlh1 siRNA vs control; for IC50: no siRNA knock out, read-out: IC50, Control; for Fold improvement in IC50, p53: p53 siRNA vs control; for Fold improvement in IC50, rev: rev siRNA vs control
Protocol: (§1) siRNA specific for different genes is purchased from Dharmacon (Thermo. Fisher Scientific Dharmacon Products, Lafayette, Colo. 80026) and the protocol recommended by the supplier is utilized. Confluent cells are trypsinized and 5000 cells are seeded in a well in the presence or absence of siRNA in 100 μL medium. The cells are incubated with siRNA for two days. A non-covalent DNA binding agent of the invention is added in a 10 μL volume and incubated for another 48 hours. After treatment with the agent, the medium is replaced with 1% alamar blue containing medium to measure fluorescence after two hours.
as §1, with “from Dharmacon (Thermo Fisher Scientific” for “from Dharmacon (Thermo. Fisher Scientific”, “two hours. […] The results are presented in FIGS. 14-18 (SEQ ID NO:3-12, respectively) and Table 7.” for “two hours.”

[4] = tested on: SW620 colon tumor xenograft; assay: SW620 colon tumor xenograft model; format: in vivo, mice
[5] = tested on: HCT116 (mlh−); assay: siRNA inhibition of p53 and REV functions, alamar blue growth inhibition; format: cell-based, human; conditions: for Fold improvement in IC50, p53: p53 siRNA vs control; for Fold improvement in IC50, rev: rev siRNA vs control; for IC50: no siRNA knock out, read-out: IC50, Control
Protocol: as §1
as §1, with “from Dharmacon (Thermo Fisher Scientific” for “from Dharmacon (Thermo. Fisher Scientific”, “two hours. […] The results are presented in FIGS. 14-18 (SEQ ID NO:3-12, respectively) and Table 7.” for “two hours.”

[6] = tested on: SW403; assay: Growth inhibition in tumor cell lines (Table 2); format: cell-based, human; conditions: SW403, colon, WT (EGFR over expression)
[7] = tested on: yeast rad52 mutation; assay: Alamar Blue cell survival assay in yeast cells; format: cell-based
Protocol: (§2) The cells are diluted 100-fold in yeast complete medium. 100 μL of diluted cells are seeded in 96 well plates with or without a non-covalent DNA binding compound and incubated for 24 hours at 30° C. The following day, an equal volume of yeast complete medium containing 1% alamar blue is added and incubated at 30° C. for two hours. Fluorescence intensity is measured in a fluorescent reader to calculate the inhibition effect of non-covalent DNA binding agents in mutant and wild type yeast cells.
(§3) Yeast cells that carry mutations in different genes involved in homologous recombination (rad 50, rad51, rad52, and rad57) and nucleotide excision/double strand repair (rad1) are grown to stationary culture overnight.

[8] = tested on: yeast rad51 mutation; assay: Alamar Blue cell survival assay in yeast cells; format: cell-based
Protocol: as §2, §3

[9] = tested on: Wild type yeast; assay: Alamar Blue cell survival assay in yeast cells; format: cell-based
Protocol: as §2, §3

[10] = tested on: yeast rad1 mutation; assay: Alamar Blue cell survival assay in yeast cells; format: cell-based
Protocol: as §2, §3

[11] = tested on: yeast rad50 mutation; assay: Alamar Blue cell survival assay in yeast cells; format: cell-based
Protocol: as §2, §3

Structure (SMILES) | IC50 [1] [nM] | IC50 [2] [nM] | Fold improvement in IC50, mlh1 [3] [fold] | IC50 [3] [nM] | Fold improvement in IC50, p53 [3] [fold] | Fold improvement in IC50, rev [3] [fold] | Fold improvement in IC50, p53 [5] [fold] | Fold improvement in IC50, rev [5] [fold] | IC50 [6] [nM] | IC50 [7] [nM] | IC50 [8] [nM] | IC50 [9] [nM] | IC50 [10] [nM] | IC50 [11] [nM] | IC50 [5] [nM] | further results
COc1cc2c(cc1OCCCCCOc1cc3c(cc1OC)C(=O)N1CCC[C@H]1C(=O)N3)N=C[C@@H]1CCCN1C2=O [NSC 718813] | 202 | 17 ± 0.2 | 3.0 | 300 | 10 | 5 | 12.5 | 7.1 | 210 | 90000 | 7000 | > 250000 | 11000 | 90000 |  | tumor burden in SW620 colon tumor xenograft model ([4]; Q1 Dx5 IV followed by Q4Dx3 IP administration): reduces tumor burden
COc1cc2c(cc1OCCCCN1CCN(CCCCOc3cc4c(cc3OC)C(=O)N3CCC[C@H]3C=N4)CC1)N=C[C@@H]1CCCN1C2=O [NSC 723734] | 178 | 45 ± 4 | 3.5 | 70 | 1.2 | >70 | 2.2 | 2.2 | 550 | 50000 | 28000 | > 250000 | 15000 | 17000 | 300 | dose-reduction index (DRI) of combination with cisplatin ([4]; SW620 colon tumor xenograft mouse model): significant dose-reduction index (DRI); quantitative analysis of combination with cisplatin ([4]; combination doses achieving >50% efficacy): synergistic with cisplatin; synergy with cisplatin in SW620 colon tumor xenograft mouse model ([4]; intermittent IP administration of the two drugs): excellent synergy with cisplatin; synergy with cisplatin at lower (minimally active) cisplatin dose ([4]; intermittent IP administration, SW620 xenograft in mice): synergistic with cisplatin and restores antitumor activity of cisplatin; activity in SW620 colon tumor xenograft model ([4]; intraperitoneal, once daily administration for 7 days): superior activity to NSC718813; reduction in SW620 colon tumor xenograft ([4]; intravenous and intraperitoneally administered): dose-dependent reduction
COc1cc2c(cc1OCCCC(=O)Nc1ccc3ccc4cccc5ccc1c3c45)N=C[C@@H]1CCCN1C2=O [NSC 726260] | 397 | 114 ± 26.7 | 135 | 400 | 1.1 | 135 | 3.8 | 5.0 | 1020 | 15000 | 4500 | 45000 | 15000 | 20000 | 750 | pharmacological activity in SW620 colon tumor xenograft model ([4]; combined IV and IP administration): limited pharmacological activity
